The values below come from patent publication US20120225909A1, “INDAZOLE ANALOG” (priority 2009, published 2012).

What all share (type): cell-based
Assay [1] deals with T1, human β1-adrenergic receptor (Homo sapiens, UniProt P08588).
T1 construct: expressed in transfected cells; host or cells: CHO (Chinese hamster ovary) cells, pcDNA3
As to the kind of experiment: Test Case 2-B: human β1-adrenergic receptor agonist activity. The note with it: for Emax: read-out: β1 receptor I.A. As to the method: Measurement of Human β1-Adrenergic Receptor Agonist Activity
The human β1-adrenergic receptor agonist activity is measured by the same method as in Test Case 1-B using CHO (Chinese hamster ovary) cells transfected by a human β1 gene inserted in pcDNA3 (Invitrogen).

Assay [2] concerns the target T2, human α1A-adrenergic receptor (Homo sapiens, UniProt P35348).
T2 sequence (P35348 1-466): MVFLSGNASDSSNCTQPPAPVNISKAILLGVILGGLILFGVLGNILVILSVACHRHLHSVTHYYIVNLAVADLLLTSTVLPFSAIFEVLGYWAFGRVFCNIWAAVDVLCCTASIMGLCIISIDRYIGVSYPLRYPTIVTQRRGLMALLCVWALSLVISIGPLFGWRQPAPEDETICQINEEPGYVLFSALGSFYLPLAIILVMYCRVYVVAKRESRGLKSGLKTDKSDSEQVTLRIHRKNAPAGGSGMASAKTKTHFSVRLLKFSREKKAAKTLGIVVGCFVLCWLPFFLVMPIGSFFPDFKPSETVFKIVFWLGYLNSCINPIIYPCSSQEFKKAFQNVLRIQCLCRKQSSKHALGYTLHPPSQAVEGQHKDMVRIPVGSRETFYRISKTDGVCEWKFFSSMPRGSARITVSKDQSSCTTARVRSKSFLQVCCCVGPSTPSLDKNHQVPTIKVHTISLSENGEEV
As to the kind of experiment: Test Case 4-A: human α1A-adrenergic receptor agonist activity (HEK293, Ca flux, Fura-2). Details: expressed in transfected cells; host or cells: HEK293 cells, pcDNA3.1. The note with it: for Emax: HEK293, read-out: α1A receptor I.A.; for α1A receptor I.A.: Test Case 4-A, maximum response of norepinephrine = 100%, Table 4. As to the method: (§1) Measurement of Human α1A-Adrenergic Receptor Agonist Activity
The human α1A-adrenergic receptor agonist activity is measured using HEK293 cells transfected by a human α1A gene inserted in pcDNA3.1 (Invitrogen). […] After loading for 30 minutes in a CO2 incubator, the excess Fura-2AM is removed by washing twice with assay buffer. After preparing the centrifuged cells to make 5×10^6 cells/mL by assay buffer, 80 μL/well is dispensed into 96-well UV plates (made by Corning) to make cell plates. Sample plates with the test compound diluted 10-fold by assay buffer from 10^−5 to 10^−12 M and cell plates are set in an FDSS4000 (made by Hamamatsu Photonics). After preincubating for 180 seconds, measurement of fluorescence intensity (excitation wavelength 340 nm, 380 nm, measurement wavelength 500 nm) is begun at 2-second intervals. After approximately 30 seconds of measurement, 20 μL of test sample from a sample plate is added to the cell plate, and measurement is continued for another 270 seconds. The Ca flux caused by the test compound is calculated taking the difference in the maximum value of the fluorescence intensity ratio at 340 nm and 380 nm after adding the test compound and the fluorescence intensity ratio before adding the test compound as the peak height.

Assay [3] deals with T3, human β3-adrenergic receptor (Homo sapiens, UniProt P13945).
T3 construct: A full-length human β3 gene is obtained from a human genomic library (made by Clontech) using this as the probe; expressed in transfected cells; host or cells: CHO (Chinese hamster ovary) cells, pcDNA3
T3 sequence (P13945 whole entry): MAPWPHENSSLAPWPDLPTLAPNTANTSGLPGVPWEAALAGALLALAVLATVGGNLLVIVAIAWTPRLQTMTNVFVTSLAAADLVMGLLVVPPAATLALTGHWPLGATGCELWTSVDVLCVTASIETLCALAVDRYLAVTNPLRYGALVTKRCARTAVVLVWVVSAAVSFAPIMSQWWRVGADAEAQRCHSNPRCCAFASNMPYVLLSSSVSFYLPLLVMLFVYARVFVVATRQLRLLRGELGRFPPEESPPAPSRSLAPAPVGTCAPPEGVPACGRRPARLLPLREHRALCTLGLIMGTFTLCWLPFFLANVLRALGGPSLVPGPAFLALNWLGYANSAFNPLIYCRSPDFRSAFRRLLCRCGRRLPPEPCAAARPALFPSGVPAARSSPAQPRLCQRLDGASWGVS
Nature of the assay: Test Case 1-B: human β3-adrenergic receptor agonist activity (cAMP-Screen, 96-well). The note with it: for Emax: 0.5 h, read-out: β3 receptor I.A.; for EC50: CHO cells, cAMP. As to the method: Measurement of Human β3-Adrenergic Receptor Agonist Activity
The human β3-adrenergic receptor agonist activity is measured using CHO (Chinese hamster ovary) cells transfected by a human β3 gene inserted in pcDNA3 (Invitrogen). […] A full-length human β3 gene is obtained from a human genomic library (made by Clontech) using this as the probe. These cells are cultured in Ham's F-12 medium containing 10% fetal calf serum and 400 μg/mL genectin (Invitrogen). These cells are sown in 96-well plates to make 2×10^4 cells/well. After culturing for approximately 20 hours, they are allowed to stand for 15 minutes in 80 μL of serum-free Ham's F-12 medium. After first dissolving the test compound by DMSO, it is serially diluted by Ham's F-12 containing 100 mmol/L HEPES and 1 mmol/L isobutylmethylxanthine, and 20 μL is added to the cells. After culturing for 30 minutes, the medium is removed, and 0.1 mL of the assay/lysis buffer contained in the cAMP-Screen kit (made by Applied Bioscience) is added and incubated for 30 minutes at 37° C. The cAMP in this cell lysate is assayed by the above cAMP-Screen kit.

Assay [4] has as its target T4, human β2-adrenergic receptor (Homo sapiens, UniProt P07550).
T4 construct: expressed in transfected cells; host or cells: CHO (Chinese hamster ovary) cells, pcDNA3
As to the kind of experiment: Test Case 3-B: human β2-adrenergic receptor agonist activity. The note with it: for Emax: read-out: β2 receptor I.A. How it is done: Measurement of Human β2-Adrenergic Receptor Agonist Activity
The human β2-adrenergic receptor agonist activity is measured by the same method as in Test Case 1-B using CHO (Chinese hamster ovary) cells transfected by a human β2 gene inserted in pcDNA3 (Invitrogen).

Assay [5] has as its target T2, human α1A-adrenergic receptor. Nature of the assay: Test Case 4-B: human α1A-adrenergic receptor agonist activity (Cerep cellular functional GPCR, alpha 1A). Also noted: expressed in transfected cells. The note with it: concentration 10 μM; for α1 receptor % of Control Agonist Response, Control; Epinephrine: epinephrine = 100%.
Source text: as §1
The human α1A-adrenergic receptor agonist activity] can be measured by […] Functional GPCR·Gs, alpha 1A (Ref. 722-36a) listed on p. 52 of the Cerep 2008 CATALOG IN VITRO PHARMACOLOGY & ADME-TOX.

T4 sequence (P07550 whole entry): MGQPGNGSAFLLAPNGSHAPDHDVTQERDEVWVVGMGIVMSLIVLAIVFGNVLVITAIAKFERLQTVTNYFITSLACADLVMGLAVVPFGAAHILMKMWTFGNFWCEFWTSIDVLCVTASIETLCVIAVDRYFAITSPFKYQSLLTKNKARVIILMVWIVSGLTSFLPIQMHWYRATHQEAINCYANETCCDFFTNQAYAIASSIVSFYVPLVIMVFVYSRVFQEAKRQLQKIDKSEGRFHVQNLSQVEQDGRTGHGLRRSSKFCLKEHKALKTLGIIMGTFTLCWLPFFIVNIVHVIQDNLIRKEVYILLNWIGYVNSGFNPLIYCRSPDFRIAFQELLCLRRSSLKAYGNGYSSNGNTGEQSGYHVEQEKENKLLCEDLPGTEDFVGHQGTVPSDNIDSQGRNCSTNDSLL
T1 sequence (P08588 whole entry): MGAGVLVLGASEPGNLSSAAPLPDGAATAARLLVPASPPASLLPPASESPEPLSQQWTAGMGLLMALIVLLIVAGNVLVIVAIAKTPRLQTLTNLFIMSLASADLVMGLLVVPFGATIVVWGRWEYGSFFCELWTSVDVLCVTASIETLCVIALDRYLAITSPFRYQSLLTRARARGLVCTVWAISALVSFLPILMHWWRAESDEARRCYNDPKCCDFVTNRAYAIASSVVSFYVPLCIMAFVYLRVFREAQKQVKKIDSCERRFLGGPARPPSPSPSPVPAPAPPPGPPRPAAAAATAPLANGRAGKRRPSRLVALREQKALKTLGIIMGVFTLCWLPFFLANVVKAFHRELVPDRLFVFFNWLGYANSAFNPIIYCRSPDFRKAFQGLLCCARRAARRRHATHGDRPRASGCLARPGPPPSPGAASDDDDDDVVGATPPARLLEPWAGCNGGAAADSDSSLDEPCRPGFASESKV

By EC50 is commonly meant the midpoint of the concentration-response curve. A low value points to an effect from little substance. With `COc1n[nH]c2cc(OCCNC[C@H](O)c3cccc(NS(=O)(=O)c4cccnc4)c3)ccc12` [ex12, (R)-N-(3-(1-hydroxy-2-(2-(3-methoxyindazol-6-yloxy)ethylamino)ethyl)phenyl)pyridine-3-sulfonamide], the Emax came out at 5% in assay [1], 0% in assay [2], 52% in assay [3] and 5% in assay [4]. The same molecule gave an EC50 in assay [3] (Test Case 1-B) of 0.031 µM.
Turning to `COc1cccc(S(=O)(=O)Nc2cccc([C@@H](O)CNCCOc3ccc4c(OC)n[nH]c4c3)c2)c1` [ex43, (R)-N-(3-(1-hydroxy-2-(2-(3-methoxyindazol-6-yloxy)ethylamino)ethyl)phenyl)-3-methoxybenzene-sulfonamide], in assay [1] (Test Case 2-B, maximum response of isoproterenol = 100%), the “β1 receptor I.A.” value is −2%. For the same molecule, the “α1A receptor I.A.” value in assay [2] worked out at 0%. A half-maximal effect in assay [3] (Test Case 1-B) (EC50) was put at 0.015 µM. Moreover, the “β3 receptor I.A.” value in assay [3] (Test Case 1-B, maximum response of isoproterenol = 100%) worked out at 65%. Moreover, in assay [4] (Test Case 3-B, maximum response of isoproterenol = 100%), the “β2 receptor I.A.” value was −5%.
For `CNc1cccc(S(=O)(=O)Nc2cccc([C@@H](O)CNCCOc3ccc4c(C)n[nH]c4c3)c2)c1` [ex239, (R)—N-(3-(1-hydroxy-2-(2-(3-methylindazol-6-yloxy)ethylamino)ethyl)phenyl)-3-(methylamino)benzenesulfonamide], the Emax worked out at 15% in assay [1], 0% in assay [2], 108% in assay [3] and 2% in assay [4]. In assay [3] (Test Case 1-B), this molecule had an EC50 of 0.016 µM.
The corresponding values for `Nc1cccc(S(=O)(=O)Nc2cccc([C@@H](O)CNCCOc3ccc4c(Cl)n[nH]c4c3)c2)c1` [ex153, (R)- ? -amino-N-(3-(2-(2-(3-chloroindazol-6-yloxy)-ethylamino)-1-hydroxyethyl)-phenyl) benzenesulfonamide] are 12%, 0%, 95%, 13% and 0.00022 µM.
For `NC[C@H](O)c1ccc(O)c(O)c1` [Norepinephrine, reference compound], in assay [2], the Emax amounted to 100% and the “α1A receptor I.A.” value is given as 100%. Further, the “α1 receptor % of Control Agonist Response, Control; Epinephrine” value in assay [5] stood at 116%. Besides, the “α1 receptor % of Control Agonist Response, Control; Norepinephrine” value in assay [5] (norepinephrine = 100%) is given as 100%.
On to `COc1n[nH]c2cc(OCCNC[C@H](O)c3cccc(NS(=O)(=O)C4CC4)c3)ccc12` [ex17, (R)-N-( ? -(1-hydroxy-2-(2-(3-methoxyindazol-6-yloxy)ethylamino)ethyl)phenyl)cy ?], for which the Emax in assay [1] was 1%; in assay [2] it was 13%; in assay [3], 70%; in assay [4], 12%. The molecule also gave a concentration giving a half-maximal response (EC50) in assay [3] (Test Case 1-B) of 0.039 µM.
Turning to `Cc1n[nH]c2cc(OCCNC[C@H](O)c3cccc(NS(=O)(=O)c4ccccc4O)c3)ccc12` [ex241, (R)-2-hydroxy-N-(3-(1-hydroxy-2-(2-(3-methylindazol-6-yloxy)ethylamino)ethyl)phenyl)benzenesulfonamide], the Emax was found to be 9% in assay [1], 0% in assay [2], 94% in assay [3] and 8% in assay [4]. For the same molecule, a half-maximal response in assay [3] (Test Case 1-B) (EC50) required 0.043 µM.
The corresponding values for `Cc1cccc(S(=O)(=O)Nc2cccc([C@@H](O)CNCCOc3ccc4c(C)n[nH]c4c3)c2)c1` [ex49, (R)-N-(3-(1-hydroxy-2-(2-(3-methylindazol-6-yloxy)ethylamino)ethyl)phenyl)-3-methyl] are 10%, 0%, 96%, -3% and 0.0025 µM.
The corresponding values for `CCc1n[nH]c2cc(OCCNC[C@H](O)c3cccc(NS(=O)(=O)c4cccc(N)c4)c3)ccc12` [ex118, (R)-3-amino-N-(3-(2-(2-(3-ethylindazol-6-yloxy)-ethylamino)-1-hydroxyethyl)-phenyl) benzenesulfonamide] are 13%, 0%, 77%, -1% and 0.00025 µM.
For `Cc1n[nH]c2cc(OCCNC[C@H](O)c3cccc(NS(=O)(=O)c4ccccc4N)c3)ccc12` [ex53, (R)-2-amino-N-(3-(1-hydroxy-2-(2-(3-methylindazol-6-yloxy)ethylamino)ethyl)phenyl) benzenesulfonamide], the Emax turned out to be 14% in assay [1], 0% in assay [2], 98% in assay [3] and 2% in assay [4]. In assay [3] (Test Case 1-B), the concentration giving a half-maximal response (EC50) was determined as 0.0041 µM.
The like results for `O=S(=O)(Nc1cccc([C@@H](O)CNCCOc2ccc3c(C(F)(F)F)n[nH]c3c2)c1)C1CC1` [ex181, (R)-N-(3-(1-hydroxy-2-(2-(3-(trifluoromethyl)indazol-6-yloxy)ethylamino)ethyl)phenyl) cyclopropane-sulfonamide] were, in that order, 1%, 4%, 80%, 8% and 0.016 µM.
The corresponding values for `Cc1n[nH]c2cc(OCCNC[C@H](O)c3cccc(NS(=O)(=O)c4cccc(O)c4)c3)ccc12` [ex236, (R)-3-hydroxy-N-(3-(1-hydroxy-2-(2-(3-methylindazol-6-yloxy)ethylamino)ethyl)phenyl)benzenesulfonamide] are 11%, 0%, 58%, 5% and 0.001 µM.
The like results for `CCc1n[nH]c2cc(OCCNC[C@H](O)c3cccc(NS(=O)(=O)c4cccc(C)c4)c3)ccc12` [ex126, (R)-N-(3-(2-(2-(3-ethylindazol-6-yloxy)ethylamino)-1-hydroxyethyl)phenyl)-3-methylbenzene-sulfonamide] were, in that order, 8%, 0%, 85%, 1% and 0.014 µM.
In the case of `CNC[C@H](O)c1ccc(O)c(O)c1` [Epinephrine, epinephrine, reference compound], in assay [5], the “α1 receptor % of Control Agonist Response, Control; Epinephrine” value is given as 100%.
Consider `O=S(=O)(Nc1cccc([C@@H](O)CNCCOc2ccc3c(C4CCC4)n[nH]c3c2)c1)C1CCC1` [ex233, (R)-N-(3-(2-(2-(3- ?], for which the Emax in assay [2] turned out to be 9%; in assay [3] it was 73%. Besides, the EC50 in assay [3] (Test Case 1-B) stood at 0.01 µM.
